This note sets out measurements from patent US20100267803A1, “Regulators Of Fat Metabolism As Anti-Cancer Targets” (The Research Foundation of State University Of New York, priority 2008, published 2010).

Common to all, as to format: cell-based, human
Series [1] has as its system BT474, MDA-MB-361, MCF-7 and HMEC cells. Nature of the series: Cell counts after PPARγ antagonist treatment. As to conditions: 10 and 20 μM for 72 hrs; % of vehicle. As to the method:
FIG. 3 PPAR. inhibition impacts NR1D1 expression and ERBB2-positive cells viability. (a) Cell counts of BT474, MDA-MB-361, MCF-7 and HMEC cells treated with vehicle, 10 and 20 μM of the PPAR. antagonist GW9662 for 72 hrs. Results represented as % of control (vehicle). (Error bars are s.d from 3 individual experiments; *P>0.2, **P<0.05, ***P<0.002). (b) BT474 cells treated with vehicle or 20 μM of GW9662 for 48 h were immuno-stained for cleaved Caspase-3. (c) Quantification of Caspase-3 signal. (Error bars are s.d from 3 individual experiments; ***P=0.002). (d) aP2 and NR1D1 mRNA levels of BT474 cells treated with vehicle (control) and 20 μM of GW9662 for 48 h, analyzed by qRT-PCRs. (Error bars are s.d from 3 experiments; ***P<0.0006. (e) BMAL1-luc activity of BT474 cells treated with vehicle or 20 μM of GW9662 for 48 h. (Error bars are s.d from 3 individual experiments; **P=0.03). (f) Total ERBB2 western blot of BT474 cells treated with vehicle or 20 μM GW9662 for 72h. GAPDH was used as control.
(§1) Cell viability—apoptosis assays. […] At least 30 fields were imaged per single experiment. […] Immunoblotting. […] PCR reaction was run using standard conditions.

The subject of series [2] is BT474 cells. Nature of the series: Counts of GFP co-transfected BT474 cells (cell death / viability). The note with it: shRNA co-transfected with GFP, counted up to 72 h. As to the method: (§2) Results are shown as percentage of control. (**P=0.03). (c) BT474 cells were transfected with luciferase (control), PBP and NR1D1 shRNAs and co-transfected with GFP. Green cells were counted at intervals and expressed as percentage of control. (Error bars are s.d from 3 individual experiments; *P<0.08, **P<0.03, ***P<0.005). (d) BT474 cells were transfected with luciferase (control), PBP or NR shRNAs for 48 h. Immunofluorescence was performed for cleaved Caspase-3 signal; cell nuclei were stained with Hoechst 33243. (e) Cells from […] were counted for cleaved Caspase-3 signal. (Error bars are s.d from 3 individual experiments; ***P<0.0003). (f) BT474 cells were transfected with luciferase (control) PBP, NR1D1 or PBP and NR1D1 shRNAs together and co-transfected with GFP. Transfected cells were counted at 24 h and 72 h and the 72 h-to-24 h ratio for each shRNA was calculated and expressed as % of the control shRNA (luciferase). (Error bars are s.d from 3 individual experiments; **P=0.01, ***P<0.002). (g) Cells from (f) were counted for cleaved Caspase-3 signal. (Error bars are s.d from 3 individual experiments; ***P<0.0001). (h) ERBB2 mRNA levels of BT474 cells transfected with luciferase (control), PBP or NR1D1 shRNAs for 48 h, analyzed by qRT-PCRs. (Error bars are s.d from 3 individual experiments; ***P=0.0001).
FIG. 4 NR1D1 and PBP coordinate fatty acid metabolism in breast cancer cells. (a) BT474, MDA-MB-361, MCF-7 and HMEC cells were stained with Oil-Red O lipid and hematoxylin nuclear stains. (b) Fat stores were quantified by BODIPY 493/503 lipid probe staining (Error bars are s.d from 3 individual experiments). (c) FASN, ACLY, ACACA and FADS2 mRNA levels of BT474 cells treated with luciferase (control), PBP or NR1D1 shRNAs, or with vehicle and 20 μM of GW9662 for 48 h, analyzed by qRT-PCRs. (Error bars are s.d from 3 experiments; ***P<0.001, **P=0.005) (d) BT474 cells were transfected with FASN, ACLY and ACACA shRNAs and co-transfected with GFP. Transfected cells were counted at 24 h and 72 h and the 72h-to-24 h ratio for each shRNA was calculated and expressed as % of the control shRNA (luciferase). (Error bars are s.d from 3 individual experiments; **P<0.01, ***P<0.002). (e) BODIPY images and (f) quantification of BT474 cells transfected with luciferase (control), PBP or NR1D1 shRNAs and co-transfected with DsRed (Error bars are s.d from 3 individual experiments; ***P<0.03). Arrows indicate transfected cells.
FIG. 5. (a) MDH1 and ME1 mRNA levels of BT474 cells treated with luciferase (control), PBP or NR1D1 shRNAs for 48 h, analyzed by qRT-PCRs. (Error bars are s.d from 3 experiments; **P<0.002 (b) BT474 and MCF-7 cells were transfected with luciferase (control) MDH1 and ME1 shRNAs (Error bars are s.d from 3 individual experiments; ***P=0.0003). (c) BT474 cells) assayed for cleaved Caspase-3 signal by immunofluorescence 48 h after transfection; cell nuclei were stained with Hoechst 33243. (d) Quantification of cleaved Caspase-3 signal from cells in (c). (Error bars are s.d from 3 individual experiments; ***P<0.005). (e) Enzymes involved in fatty acid synthesis and storage that are regulated by NR1D1 and PBP and their proposed contribution to energy production necessary for survival of ERBB2-positive breast cancer cells.
as §1

For series [3], the system named is BT474 cells. Nature of the series: RNAi screen, alamarBlue cell proliferation and viability. As to conditions: shRNA transfection. The source says:
(§3) FIG. 1 An RNAi screen targeting genes overexpressed in breast cancer. (a) Three transfection mixes were produced for each shRNA and each was transfected into triplicate wells of BT474 cells. AlamarBlue was used to monitor cell proliferation and viability. […] (b) The genetic and functional linkage of NR1D1 and PBP. Mb refers to map position on chromosome 17. (c) ERBB2-overexpressing (OEX) and ERBB2 non-overexpressing (non-OEX) breast cancer cell lines as well as the (non-OEX) HMEC and HEK 293 cells were transfected and assayed as in (a). […] Genes clustered with ERBB2 are boxed.
Amplification of the ERBB2 oncogene occurs in 10-34% of breast cancer cases and is correlated with aggressive disease and poor clinical outcome^1. […] However, its success has been tempered by response rates of only 30% when used as a single agent therapy in patients with metastatic ERBB2-positive breast cancer^2. A large number of genes co-overexpressed with ERBB2 in this tumour type have been proposed to contribute to the aggressiveness of this cancer^3-5. Applicants have performed an unbiased functional RNAi screen^8-10 to determine if any of these co-overexpressed genes are essential for ERBB2 positive breast cancer cell survival.
RNAi screen, transfections and constructs. The flag-RevErba (flag-NR1D1) overexpression construct was a generous gift of M. Lazar. The LSXN-neu* (ERBB2) overexpression construct was a generous gift of L. Petti. shRNA constructs were expressed from the pSHAG-MAGIC 2 (pSM2) vector and derived from a genome-wide shRNA library^31. ShRNAs targeting the firefly (Photinus pyralis) luciferase gene were used as controls. Transfection efficiency was monitored by co-transfection with a modified MSCV-Puro vector expressing green fluorescent protein (GFP). The alamarBlue (Biosource) assay was performed 96 h post-transfection, since BT474 cells have a population doubling time of ˜100 hours. For mature sequences of the shRNAs that produced the best results on decreasing BT474 viability, Table S1; a complete list is available in the RNAi Codex web page (http://codex.cshl.edu). The shRNAs targeting the luciferase gene were constructed as described in the RNAi Codex web page (http://codex.cshl.edu/scripts/newmain.pl) using a modified pSM2 vector containing the PheS gene (pSM2-PheS) in the cloning site, as a negative selection marker. The empty vector control (pSM2e) was constructed by XhoI and EcoRI (New England Biolabs) digestion of pSM2-PheS, followed by nucleotide filling of protruding ends by Klenow polymerase and blunt-end ligation. Transfections were performed using FuGENE 6 and HD FuGENE (Roche) according to the manufacturer's protocol. High-throughput transfections were performed using an EpMotion 5070 fluidics station (Eppendorf). For quantification of alamarBlue we used a BioTek HT Synergy plate reader. AlamarBlue values from the RNAi screens on other cell types were also calculated as above and subjected to hierarchical cluster analysis using Cluster 2.11 (M. Eisen Lab).
Background: Alamar Blue is a resazurin reagent that responds to reducing activity.

For series [4], the system named is BT474 cells. Kind of series: Apoptosis by cleaved Caspase-3 or activated Bax immunofluorescence. The note with it: 48 h of shRNA or 20 μM GW9662. The protocol: as §2
FIG. 3 PPAR. inhibition impacts NR1D1 expression and ERBB2-positive cells viability. (a) Cell counts of BT474, MDA-MB-361, MCF-7 and HMEC cells treated with vehicle, 10 and 20 μM of the PPAR. antagonist GW9662 for 72 hrs. Results represented as % of control (vehicle). (Error bars are s.d from 3 individual experiments; *P>0.2, **P<0.05, ***P<0.002). […] (c) Quantification of Caspase-3 signal. […] (d) aP2 and NR1D1 mRNA levels of BT474 cells treated with vehicle (control) and 20 μM of GW9662 for 48 h, analyzed by qRT-PCRs. […]
FIG. 5. (a) MDH1 and ME1 mRNA levels of BT474 cells treated with luciferase (control), PBP or NR1D1 shRNAs for 48 h, analyzed by qRT-PCRs. […] (d) Quantification of cleaved Caspase-3 signal from cells in (c). […]

For series [5], the system named is nonoverexpressing breast cancer cell lines (MCF-7, MDA-MB-453, MDA-MB-468), HMECs, HEK 293FT. Kind of series: alamarBlue proliferation of shRNA-transfected ERBB2 non-overexpressing cell lines. As to conditions: MCF-7, MDA-MB-453, MDA-MB-468, HMEC, shRNA transfection.
Excerpt: as §3
(§4) To assess the specificity of effect of each shRNA on cell proliferation, those causing the greatest decrease in BT474 cell proliferation were transfected in a variety of cell lines, including ERBB2 overexpressing (BT474, MDA-MB-361) and nonoverexpressing breast cancer cell lines (MCF-7, MDA-MB-453, MDA-MB-468), normal human mammary epithelial cells (HMECs) and a non-breast tumorigenic cell line (HEK 293FT). […] PBP, NRID1 and PFN2 shRNAs clustered with ERBB2.
(§5) RNAi screen, transfections and constructs. The flag-RevErba (flag-NR1D1) overexpression construct was a generous gift of M. Lazar. The LSXN-neu* (ERBB2) overexpression construct was a generous gift of L. Petti. shRNA constructs were expressed from the pSHAG-MAGIC 2 (pSM2) vector and derived from a genome-wide shRNA library^31. ShRNAs targeting the firefly (Photinus pyralis) luciferase gene were used as controls. Transfection efficiency was monitored by co-transfection with a modified MSCV-Puro vector expressing green fluorescent protein (GFP). The alamarBlue (Biosource) assay was performed 96 h post-transfection, since BT474 cells have a population doubling time of ˜100 hours. […] For quantification of alamarBlue we used a BioTek HT Synergy plate reader. AlamarBlue values from the RNAi screens on other cell types were also calculated as above and subjected to hierarchical cluster analysis using Cluster 2.11 (M. Eisen Lab).

Series [6] deals with ERBB2 overexpressing (BT474, MDA-MB-361) breast cancer cell lines. Kind of series: alamarBlue proliferation of shRNA-transfected ERBB2-overexpressing cell lines. As to conditions: shRNA transfection.
Excerpt: as §3, §4, §5

Regarding `O=C(Nc1ccncc1)c1cc([N+](=O)[O-])ccc1Cl` [second PPARγ antagonist], the “sensitivity of cells to drug treatment (cell counts)” value in series [1] is recorded as “produced the same effects”. Regarding “ACACA shRNA: shRNA, mature sequence CACATGACCTTAAGATTAT (shRNA)”, the “cell death / viability (cell number of transfected cells)” value (“cell death / viability” for short) in series [2] is “significantly decreased BT474 cell viability”. The same measure, in the same setting: next, “ACLY shRNA: shRNA, mature sequence GGGAGGAAGCTGATGAATA (shRNA)”: “significantly decreased BT474 cell viability”. As to “CA9 shRNA: shRNA, mature sequence CTTTGAATGGGCGAGTGAT (shRNA)”, the “effect on cell proliferation” value in series [3] is on record as “significant effects on proliferation”. The same measure, in the same setting: next, “FADS2 shRNA: shRNA, mature sequence CCCATAGGGAGCTGATCGT (shRNA)”: “moderate effect on cell proliferation”. As for “FASN shRNA: shRNA, mature sequence CTGGCCCAGGCTGAAGTTT (shRNA)”, the “cell death / viability” value in series [2] is “significantly decreased BT474 cell viability”. Also, the “effect on cell proliferation” value in series [3] was “moderate effect on cell proliferation”. With “MAP2K6 shRNA: shRNA, mature sequence CAGATGACCTGGAGCCTAT (shRNA)”, in series [3], the “effect on cell proliferation” value is “most dramatic effect on cell proliferation”. Regarding “MDH1 shRNA: shRNA, mature sequence CGAGCTAAAGCTCAAATTG (shRNA)”, the “cell death / viability” value in series [2] is listed as “cell death”. Also, in series [4], the apoptosis entry was “apoptosis”.

As to “ME1 shRNA: shRNA, mature sequence GGCTTTATCCTCCTTTGAA (shRNA)”, the “cell death / viability” value in series [2] is on record as “cell death”. Further, in series [4], the apoptosis entry is “apoptosis”. As for “MKI67 shRNA: shRNA, mature sequence GCTACAAACTCCTAAGGAA (shRNA)”, the “effect on cell proliferation” value in series [3] is given as “significant effects on proliferation”. On to “PFN2 shRNA: shRNA, mature sequence AGCATTACGCCAATAGAAA (shRNA)”, for which, in series [5], the “effect on other cell lines or HMECs” value is reported as “without effect on other cell lines or HMECs”. The “viability of ERBB2-positive cells” value in series [6] is recorded as “specifically decreased the viability of ERBB2-positive cells”. With “TPD52 shRNA: shRNA, mature sequence CTGTGAGATTCCTACCTTT (shRNA)”, in series [3], the “effect on cell proliferation” value is listed as “significant effects on proliferation”.
